Reference: patent US9428487B2, “Heteroaromatic amides and thioamides as pesticides” (Bayer Intellectual Property GmbH, priority 2008, dated 2016)

Assays:
[1] = Determination of log P values by HPLC on reversed-phase column (formic acid method); format: physicochemical; settings: reversed-phase C 18, acidic range (pH 3.4), formic acid eluents, 55° C.; for chromatographic logP: reversed-phase HPLC column (C 18), pH 3.4, HPLC, read-out: logP (HCOOH); for logP (HCOOH): HPLC
Procedure: 1) Description of Method for Determining the Log P Values (Formic Acid Method)
The log P values reported in the table were determined according to EEC-Directive 79/831 Annex V.A8 by HPLC (High Performance Liquid Chromatography) on a reversed-phase column (C 18). […]
Eluent A: acetonitrile+1 ml of formic acid/liter. Eluent B: water+0.9 ml of formic acid/liter.
Gradient: from 10% eluent A/90% eluent B to 95% eluent A/5% eluent B in 4.25 min
The calibration was effected with unbranched alkan-2-ones (with 3 to 16 carbon atoms), whose log P values are known (determination of the log P values on the basis of the retention times by linear interpolation between two successive alkanones). The lambda-max values were determined with reference to the UV spectra from 200 nm to 400 nm in the maxima of the chromatographic signals.

[2] = system: green peach aphid (Myzus persicae); assay: Myzus test; format: in vivo; settings: application rate 500 g/ha, spray on Chinese cabbage leaf slices, read-out: efficacy (aphids killed)
Procedure: • Solvent: 78.0 parts by weight of acetone • 1.5 parts by weight of dimethylformamide • Emulsifier: 0.5 part by weight of alkylaryl polyglycol ether
To produce an appropriate active ingredient formulation, 1 part by weight of active ingredient is mixed with the amounts of solvent and emulsifier specified and the concentrate is diluted to the desired concentration with emulsifier-containing water.
Chinese cabbage leaf slices (Brassica pekinensis) infested by all stages of the green peach aphid (Myzus persicae) are sprayed with an active ingredient formulation of the desired concentration.
After the desired time, the efficacy in % is determined 100% means that all aphids have been killed; 0% means that no aphids have been killed.

In the case of `Cc1nc(Cl)sc1C(=O)NCC(F)(F)F`, the chromatographic logP [1] is reported as 1.97.
With `O=C(O)c1cnc(-c2cccnc2)s1` [2-pyridin-3-ylthiazole-5-carboxylic acid] the chromatographic logP [1] was 0.42.
In the case of `Cc1nc(-c2cncc(F)c2)sc1C(=O)NCC(F)(F)F` [Compound 9], the pest or weed control at 500 g/ha [2] is reported as ≥ 70% and the chromatographic logP [1] is reported as 2.15.
In the case of `Cc1nc(-c2cncc(F)c2)sc1C(=O)NCc1ncccn1` [Compound 10], the pest or weed control at 500 g/ha [2] is reported as ≥ 70% and the chromatographic logP [1] is reported as 1.39.
For `Cn1nc(-c2cncc(F)c2)cc1C(=O)NCc1ncccn1` [Compound 11], the pest or weed control at 500 g/ha [2] was ≥ 70% and the chromatographic logP [1] was 1.24.
For `Cn1nc(-c2cncc(F)c2)cc1C(=O)NCC(C)(F)F` [Compound 12], the pest or weed control at 500 g/ha [2] was ≥ 70% and the chromatographic logP [1] was 1.89.
For `C=CN(Cc1ncccn1)C(=O)c1cc(-c2cncc(F)c2)nn1C` [Compound 13], the pest or weed control at 500 g/ha [2] was ≥ 70% and the chromatographic logP [1] was 1.75.
For `Cc1nc(-c2cncc(Cl)c2)sc1C(=O)NCC(F)(F)F` [Compound 14], the pest or weed control at 500 g/ha [2] was ≥ 70% and the chromatographic logP [1] was 2.5.
For `Cc1nc(-c2cncc(Cl)c2)sc1C(=O)NCc1ncccn1` [Compound 15], the pest or weed control at 500 g/ha [2] was ≥ 70% and the chromatographic logP [1] was 1.69.
In the case of `Cc1nc(-c2cncc(Br)c2)sc1C(=O)NCC(F)(F)F` [Compound 16], the pest or weed control at 500 g/ha [2] is reported as ≥ 70% and the chromatographic logP [1] is reported as 2.61.
Work on `Cc1nc(-c2cncc(Cl)c2)sc1C(=O)N(C)C` [Compound 17] yielded a chromatographic logP [1] of 1.8.
`Cc1nc(-c2cncc(I)c2)sc1C(=O)NCc1ncccn1` [Compound 18] gave a chromatographic logP [1] of 1.87.
`Cc1nc(-c2cncc(F)c2)sc1C(=O)N(C)C` [Compound 19] gave a chromatographic logP [1] of 1.49.
`Cc1nc(-c2cncc(I)c2)sc1C(=O)NCC(F)(F)F` [Compound 20] showed a chromatographic logP [1] of 2.75.
With `Cc1nc(-c2cncnc2)sc1C(=O)N(C)CC(F)(F)F` [Compound 21] the pest or weed control at 500 g/ha [2] was ≥ 70% and the chromatographic logP [1] was 1.72.
With `Cc1nc(-c2cncnc2)sc1C(=O)NCc1ncccn1` [Compound 22] the pest or weed control at 500 g/ha [2] was ≥ 70% and the chromatographic logP [1] was 1.05.
For `Cc1nc(-c2cncnc2)sc1C(=O)N(C)C` [Compound 23], the chromatographic logP [1] was 1.
In the case of `Cn1nc(-c2cccnc2)cc1C(=O)NCC(C)(F)F` [Compound 24], the pest or weed control at 500 g/ha [2] is reported as ≥ 70% and the chromatographic logP [1] is reported as 0.91.
In the case of `Cn1nc(-c2cccnc2)cc1C(=O)NCC(F)F` [Compound 25], the pest or weed control at 500 g/ha [2] is reported as ≥ 70% and the chromatographic logP [1] is reported as 0.65.
In the case of `Cc1nc(CNC(=O)c2cc(-c3cccnc3)nn2C)no1` [Compound 26], the pest or weed control at 500 g/ha [2] is reported as ≥ 70% and the chromatographic logP [1] is reported as 0.54.
With `CN(CC(C)(F)F)C(=O)c1cc(-c2cccnc2)nn1C` [Compound 27] the pest or weed control at 500 g/ha [2] was ≥ 70% and the chromatographic logP [1] was 0.99.
For `Cn1nc(-c2cccnc2)cc1C(=O)NCc1ncccn1` [Compound 28], the pest or weed control at 500 g/ha [2] was ≥ 70% and the chromatographic logP [1] was 0.25.
In the case of `Cn1nc(-c2cccnc2)cc1C(=O)NCc1ccon1` [Compound 29], the pest or weed control at 500 g/ha [2] is reported as ≥ 70% and the chromatographic logP [1] is reported as 0.56.
In the case of `CN(CC(F)(F)F)C(=O)c1cc(-c2cccnc2)nn1C` [Compound 30], the pest or weed control at 500 g/ha [2] is reported as ≥ 70% and the chromatographic logP [1] is reported as 1.09.
With `Cc1nc(-c2cccnc2)sc1C(=O)NC(C#N)C(C)C` (stereo not drawn) [Compound 64] the “logP (HCOOH)” value [1] was 1.57.
With `CSC[C@H](C)NC(=O)c1sc(-c2cccnc2)nc1C` [Compound 68] the “logP (HCOOH)” value [1] was 1.65.
In the case of `Cc1nc(-c2cccnc2)sc1C(=O)NCC(C)F` (stereo not drawn) [Compound 76], the “logP (HCOOH)” value [1] is reported as 1.13.
For `Cc1nc(-c2cncc(Cl)c2)sc1C(=O)N(C)CC(F)(F)F` [Preparation Example 2], the chromatographic logP [1] was 2.72.
`CON(C)C(=O)c1cc(-c2cccnc2)nn1C` [Preparation Example 6] showed a chromatographic logP [1] of 0.49.
Work on `CCOC(=O)c1cnc(-c2cccnc2)s1` [ethyl 2-pyridin-3-ylthiazole-5-carboxylate] yielded a chromatographic logP [1] of 1.93.
In the case of `CCOC(=O)c1nnc(-c2cccnc2)s1` [ethyl 5-pyridin-3-yl[1,3,4]thiadiazole-2-carboxylate], the chromatographic logP [1] is reported as 1.41.
